From patent US4604239A, “Antibiotics” (Eli Lilly and Company, priority 1985, dated 1986)
Read-outs that look alike come from different tables or passages of the source.

Assays:
Fusobacterium symbiosum = test: agar-dilution MIC; type: cell-based; conditions: Fusobacterium symbiosum 1470; Table 14
[1] = tested on: Staphylococcus epidermidis; test: agar-dilution MIC; type: cell-based; conditions: Staphylococcus epidermidis EPI1; Table 17
Text: (§1) The agar-dilution procedure described by the International Collaborative study (ICS) group was used to determine the minimum inhibitory concentrations (MIC's).

Streptococcus pyogenes = test: agar-dilution MIC; type: cell-based; conditions: Streptococcus pyogenes C203; Table 17
Text: as §1

Bacteroides fragilis = test: agar-dilution MIC; type: cell-based
Text: as §1

[2] = tested on: Streptococcus sp. (Group D); test: agar-dilution MIC; type: cell-based; conditions: Table 17
Text: as §1

Streptococcus pneumoniae = test: agar-dilution MIC; type: cell-based; conditions: Streptococcus pneumoniae Park I; Table 17
Text: as §1

[3] = tested on: Bacteroides melaninogenicus; test: agar-dilution MIC; type: cell-based; conditions: Bacteroides melaninogenicus 2736; Table 14
[4] = tested on: Bacteroides thetaiotaomicron; type: cell-based
Text: as §1

Clostridium perfringens = type: cell-based; conditions: Clostridium perfringens 81; Table 14
Clostridium difficile = type: cell-based
S. pyogenes = test: experimental bacterial infection in mice; type: in vivo; conditions: against S. pyogenes in mice; oral
Peptococcus prevoti [5] = test: agar-dilution MIC; type: cell-based
[6] = tested on: Fusobacterium necrophorum; test: agar-dilution MIC; type: cell-based; conditions: Fusobacterium necrophorum 6054A; Table 14
[7] = tested on: Peptococcus asaccharolyticus; test: agar-dilution MIC; type: cell-based
Method: (§2) The MIC values were determined by the agar-dilution method, and are recorded in Table 15, which follows.

Peptococcus constellatus = test: agar-dilution MIC; type: cell-based; conditions: Pc. constellatus 1468; Table 15
Method: as §2

Peptococcus prevoti [8] = test: agar-dilution MIC; type: cell-based; conditions: Table 15
Method: as §2

Peptococcus magnus = test: agar-dilution MIC; type: cell-based; conditions: Table 15
Method: as §2

Staph. aureus = test: experimental bacterial infection in mice; type: in vivo; conditions: two doses subcutaneously
Method: All of the A41030 factors tested have shown in vivo antimicrobial activity against experimental bacterial infections. When two doses of test compound were administered subcutaneously to mice in illustrative infections, the activity observed is measured as an ED50 value [effective dose in mg./kg. to protect fifty percent of the test animals: See Warren Wick, et al., J. Bacteriol. 81, 233-235 (1961)].

[9] = tested on: Peptostreptococcus intermedius; test: agar-dilution MIC; type: cell-based; conditions: Table 15
Hemophilus influenzae = test: agar-dilution MIC; type: cell-based; conditions: Table 17
Staphylococcus aureus = test: agar-dilution MIC; type: cell-based; conditions: in µg/mL
solubility = type: physicochemical
Bacteroides corrodens = test: agar-dilution MIC; type: cell-based; conditions: Bacteroides corrodens 1874; Table 14

Question: For A41030 factor C, which MIC (Fusobacterium symbiosum) is on record?
Answer: 1.0 µg/mL

Question: What about the MIC [1] of the same substance?
Answer: 0.5 µg/mL

Question: And the MIC (Streptococcus pyogenes)?
Answer: 1 µg/mL

Question: What about the MIC (Bacteroides fragilis; B. fragilis 2, 24-hour, Table 12) of the same substance?
Answer: 32 µg/mL

Question: And the MIC (Bacteroides fragilis; B. fragilis 9, 24-hour, Table 12)?
Answer: 32 µg/mL

Question: What about the MIC (Bacteroides fragilis; B. fragilis 103, 24-hour, Table 12) of the same substance?
Answer: 32 µg/mL

Question: What about the MIC (Bacteroides fragilis; B. fragilis 104, 24-hour, Table 12) of the same substance?
Answer: 32 µg/mL

Question: What about the MIC (Bacteroides fragilis; B. fragilis 106, 24-hour, Table 12) of the same substance?
Answer: 32 µg/mL

Question: And the MIC (Bacteroides fragilis; B. fragilis 107, 24-hour, Table 12)?
Answer: 32 µg/mL

Question: What about the MIC (Bacteroides fragilis; B. fragilis 108, 24-hour, Table 12) of the same substance?
Answer: 64 µg/mL

Question: What about the MIC (Bacteroides fragilis; B. fragilis 110, 24-hour, Table 12) of the same substance?
Answer: 64 µg/mL

Question: And the MIC (Bacteroides fragilis; B. fragilis 111, 24-hour, Table 12)?
Answer: 32 µg/mL

Question: What about the MIC (Bacteroides fragilis; B. fragilis 112, 24-hour, Table 12) of the same substance?
Answer: 32 µg/mL

Question: What about the MIC (Bacteroides fragilis; B. fragilis 113, 24-hour, Table 12) of the same substance?
Answer: 32 µg/mL

Question: What about the MIC (Bacteroides fragilis; B. fragilis 1451, 24-hour, Table 12) of the same substance?
Answer: 64 µg/mL

Question: What about the MIC (Bacteroides fragilis; B. fragilis 1470, 24-hour, Table 12) of the same substance?
Answer: 64 µg/mL

Question: What about the MIC (Bacteroides fragilis; B. fragilis 1877, 24-hour, Table 12) of the same substance?
Answer: 32 µg/mL

Question: And the MIC (Bacteroides fragilis; B. fragilis 9032, 24-hour, Table 12)?
Answer: 32 µg/mL

Question: What about the MIC (Bacteroides fragilis; Bacteroides fragilis 1877, Table 14) of the same substance?
Answer: 16 µg/mL

Question: And the MIC (Bacteroides fragilis; Bacteroides fragilis 1936B, Table 14)?
Answer: 32 µg/mL

Question: What about the MIC ([2]; Streptococcus sp. Group D 9960) of the same substance?
Answer: 4 µg/mL

Question: And the MIC ([2]; Streptococcus sp. Group D X66)?
Answer: 2 µg/mL

Question: And the MIC (Streptococcus pneumoniae)?
Answer: 1 µg/mL

Question: And the MIC [3]?
Answer: 4 µg/mL

Question: And the MIC ([4]; B. thetaiotaomicron 1438, 24-hour, Table 12)?
Answer: 32 µg/mL

Question: What about the MIC ([4]; Bacteroides thetaiotaomicron 1438, Table 14) of the same substance?
Answer: 64 µg/mL

Question: What about the MIC (Clostridium perfringens) of the same substance?
Answer: 1.0 µg/mL

Question: And the MIC (Clostridium difficile; Clostridium difficile 78, Table 16)?
Answer: 1.0 µg/mL

Question: What about the MIC (Clostridium difficile; Clostridium difficile 107B, Table 16) of the same substance?
Answer: 1.0 µg/mL

Question: What about the MIC (Clostridium difficile; Clostridium difficile 111F, Table 16) of the same substance?
Answer: 2 µg/mL

Question: What about the MIC (Clostridium difficile; Clostridium difficile 1153, Table 16) of the same substance?
Answer: 2 µg/mL

Question: What about the MIC (Clostridium difficile; Clostridium difficile 2634, Table 16) of the same substance?
Answer: 2 µg/mL

Question: What about the MIC (Clostridium difficile; Clostridium difficile 2994, Table 14) of the same substance?
Answer: 16 µg/mL

Question: What about the MIC (Clostridium difficile; Clostridium difficile 3424-5B, Table 16) of the same substance?
Answer: 1.0 µg/mL

Question: And the MIC (Clostridium difficile; Clostridium difficile 3816, Table 16)?
Answer: 2 µg/mL

Question: And the MIC (Clostridium difficile; Clostridium difficile 3950D, Table 16)?
Answer: 2 µg/mL

Question: And the MIC (Clostridium difficile; Clostridium difficile 6890, Table 16)?
Answer: 2 µg/mL

Question: And the MIC (Clostridium difficile; Clostridium difficile 8484, Table 16)?
Answer: 1.0 µg/mL

Question: And the MIC (Clostridium difficile; Clostridium difficile A-194, Table 16)?
Answer: 2 µg/mL

Question: What about the MIC (Clostridium difficile; Clostridium difficile A-195, Table 16) of the same substance?
Answer: 1.0 µg/mL

Question: And the MIC (Clostridium difficile; Clostridium difficile A-196, Table 16)?
Answer: 2 µg/mL

Question: And the MIC (Clostridium difficile; Clostridium difficile A-279, Table 16)?
Answer: 2 µg/mL

Question: And the MIC (Clostridium difficile; Clostridium difficile A-280, Table 16)?
Answer: 1.0 µg/mL

Question: What about the MIC (Clostridium difficile; Clostridium difficile A-281, Table 16) of the same substance?
Answer: 2 µg/mL

Question: And the MIC (Clostridium difficile; Clostridium difficile WAL-2112, Table 16)?
Answer: 2 µg/mL

Question: And the MIC (Clostridium difficile; Clostridium difficile WAL-3657, Table 16)?
Answer: 2 µg/mL

Question: And the MIC (Clostridium difficile; Clostridium difficile WAL-4268, Table 16)?
Answer: 1.0 µg/mL

Question: What about the “in vivo oral activity” value (S. pyogenes) of the same substance?
Answer: > 300 mg./kg. X 2

Question: What about the MIC (Peptococcus prevoti [5]; Pc. prevoti 1281, Table 15) of the same substance?
Answer: 1.0 µg/mL

Question: What about the MIC (Peptococcus prevoti [5]; Peptococcus prevoti 1281, Table 14) of the same substance?
Answer: ≤ 0.25 µg/mL

Question: And the MIC [6]?
Answer: 16 µg/mL

Question: And the MIC ([7]; Pc. asaccharolyticus 1344, Table 15)?
Answer: 1.0 µg/mL

Question: And the MIC ([7]; Peptococcus asaccharolyticus 1302, Table 14)?
Answer: ≤ 0.25 µg/mL

Question: And the MIC (Peptococcus constellatus)?
Answer: 0.5 µg/mL

Question: What about the MIC (Peptococcus prevoti [8]; Pc. prevoti 1293) of the same substance?
Answer: 0.5 µg/mL

Question: And the MIC (Peptococcus prevoti [8]; Pc. prevoti 1407)?
Answer: 1.0 µg/mL

Question: And the MIC (Peptococcus magnus; Pc. magnus 1401)?
Answer: 0.25 µg/mL

Question: And the MIC (Peptococcus magnus; Pc. magnus 1421)?
Answer: 0.25 µg/mL

Question: And the MIC (Peptococcus magnus; Pc. magnus 1477)?
Answer: 0.5 µg/mL

Question: And the ED50 (Staph. aureus)?
Answer: < 0.43 mg/kg

Question: And the MIC ([9]; Ps. intermedius 1264)?
Answer: ≤ 0.03 µg/mL

Question: What about the MIC ([9]; Ps. intermedius 1624) of the same substance?
Answer: 1.0 µg/mL

Question: And the MIC (Hemophilus influenzae; Haemophilus influenzae 251)?
Answer: 4 µg/mL

Question: And the MIC (Hemophilus influenzae; Haemophilus influenzae Brun)?
Answer: 16 µg/mL

Question: And the MIC (Staphylococcus aureus)?
Answer: 1

Question: What about the “solubility (solvents)” value (solubility) of the same substance?
Answer: soluble in the same solvents as factor A

Question: What about the MIC (Bacteroides corrodens) of the same substance?
Answer: 32 µg/mL
